Among the data in patent publication US7235549B2, “Benzamide, heteroarylamide and reverse amides” (Pfizer Inc., priority 2001, dated 2007) are melting point values, retold here.

The term melting point denotes the temperature, or range, at which the solid turns liquid.

Molecules are shown by their SMILES.

`O=C(NCCc1ccccc1C(F)(F)F)c1cc(-n2ncc(=O)[nH]c2=O)ccc1Cl` [Example 48, 2-Chloro-5-(3,5-dioxo-4,5-dihydro-3H-[1,2,4]triazin-2-yl)-N-[2-(2-trifluoromethyl-phenyl)-ethyl]-benzamide] had a melting point of 148 to 150 °C.
